This note sets out measurements from paper PMC7037862, “Tricyclic Nucleobase Analogs and Their Ribosides as Substrates and Inhibitors of Purine-Nucleoside Phosphorylases III. Aminopurine Derivatives” (Molecules, 2020).

In data set [1] the target is T1, calf PNP (Bos taurus, UniProt P55859).
T1 construct: made in house; host or cells: E. coli
T1 sequence (P55859 1-289): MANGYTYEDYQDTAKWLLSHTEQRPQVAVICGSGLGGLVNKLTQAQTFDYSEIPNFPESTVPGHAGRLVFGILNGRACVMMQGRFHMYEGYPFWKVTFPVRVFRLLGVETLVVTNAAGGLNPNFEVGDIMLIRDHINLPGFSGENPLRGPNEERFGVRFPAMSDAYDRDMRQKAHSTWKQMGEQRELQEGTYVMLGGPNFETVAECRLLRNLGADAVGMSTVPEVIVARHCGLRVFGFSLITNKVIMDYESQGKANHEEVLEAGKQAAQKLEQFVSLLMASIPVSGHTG
As to the kind of experiment: Inhibition of calf PNP. The format is biochemical. The conditions noted are these: concentrations up to 50 μM. The procedure: (§1) Etheno-tubercidine (6) is therefore a good candidate to observe enzyme-ligand complexes by spectral methods, as shown below. No inhibition of the calf PNP was observed, at least in moderate concentrations (up to 50 μM) that we used.
(§2) Enzymatic ribosylation reactions were carried out in 1 mL cuvettes (pathlength 4 mm) in ~50 mM HEPES buffer, pH 7.3, using 0.5 mM R1P as a ribose source. Reactions were followed fluorimetrically (see Section 2.4). On a larger scale (2–4 mg), the reactions were run in Eppendorf tubes, volume 2–3 mL, using either R1P (3–10 mM) or 7-methylguanosine as ribose sources. Products were purified by semi-preparative HPLC, concentrated and the final solutions kept frozen. Their structure has been confirmed by NMR (see Section 2.4 and Supplementary Materials) and by MS: comp. 3: m/z = 292.10385, comp. 4: m/z = 292.10400, comp. 5: m/z = 292.10398, calculated for C12H13N5O4 + H: 292.10403. Phosphorolysis reactions were run in 40–50 mM phosphate buffer, pH 7.0 or 6.5, and followed spectrally or fluorimetrically. Kinetic parameters were calculated by standard methods.

The target of data set [2] is T2, E. coli PNP (Escherichia coli, UniProt P0ABP8).
T2 construct: made in house; host or cells: E. coli
T2 sequence (P0ABP8 2-239): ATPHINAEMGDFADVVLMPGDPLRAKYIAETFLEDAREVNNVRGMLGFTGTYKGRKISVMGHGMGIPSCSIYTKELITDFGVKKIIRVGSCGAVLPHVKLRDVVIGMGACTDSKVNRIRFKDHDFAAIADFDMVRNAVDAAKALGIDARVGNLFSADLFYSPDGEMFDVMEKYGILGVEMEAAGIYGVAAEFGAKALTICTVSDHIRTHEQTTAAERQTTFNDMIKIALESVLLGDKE
In words: Fluorescence titration of E. coli PNP with ligand (enzyme-ligand complexes). The format is binding. The conditions noted are these: 40 mM phosphate buffer, pH 7, 20 °C; protein 11 μM per subunit. The protocol: Additionally, the fluorescence excitation spectra reveal fluorescence energy transfer (FRET) from the protein to the complexed ligand, since they show marked enhancement in the region 270–280 nm, where the tyrosine residues of the PNP molecule absorb (Figure 10).
Figure 10 Changes in fluorescence excitation (a) and emission spectra (b), observed during the titration of E. coli PNP with N^2,3-etheno-2-aminopurine (2). […] Spectra of the free ligand (3.5 μM) are given for comparison (points). Excitation spectrum of the protein, monitored at 310 nm, is given in black. Conditions: 40 mM phosphate, pH 7, at 20 °C. Concentration of protein was 10.1 μM (per subunit); that of the titrant was 0 to 3.5 μM. Lower panels: Fluorescence difference spectra, calculated from data presented on panels (a) and (b), (c) difference excitation (observed at 380 nm), (d) difference emission spectra, excited at 275 nm. Substrate concentrations are 0.17, 0.69, 1.37, 2.36 and 3.31 μM.
Etheno-tubercidine (6) forms somewhat similar fluorescent complexes with the E. coli PNP. As shown below, FRET from the protein to the ligand is evident in the excitation spectra (Figure 11), and the ligand fluorescence blue shifted from 415 to ca. 390 nm (Figure 11b,c). In this case more than 60% of protein fluorescence is quenched when protein binding sites are saturated (cf. Figure 11). […]

Data set [3] is described as follows: Ionization constants (pKa), determined spectrophotometrically. The settings on record: phosphate and/or acetate buffers, protonation, read-out: pKa (protonation). The format is physicochemical. The procedure:
Fluorescence spectra were measured on a Varian Eclipse instrument (Varian Corp., Palo Alto, CA, USA), and UV absorption kinetic experiments were performed on a Cary 5000 (Varian Corp., Palo Alto, CA, USA) thermostated spectrophotometer. Fluorescence yields were determined relative to tryptophan (0.15) or 1,N^6-ethenoadenosine in water (0.56, see ref. [2]). Emission spectra were measured in semi-micro cuvettes, pathlength 4 mm, to diminish the inner-filter effect. Typical spectral resolution was 2.5 nm. The ionization constants (pKa values) were determined spectrophotometrically using 20–50 mM phosphate and/or acetate buffers.

The target of data set [4] is T2, E. coli PNP. In words: Inhibition of phosphorolysis of purine nucleosides catalyzed by E. coli PNP. The format is biochemical. The settings on record: competitive inhibition of phosphorolysis of purine nucleosides; read-out: inhibition constant, Ki. The procedure:
as §1, §2

Substrate in data set [5]: OC[C@H]1O[C@@H](n2ccn3c4ncnc-4cnc23)[C@H](O)[C@@H]1O
As to the kind of experiment: Enzymatic phosphorolysis of ribosides, calf PNP wild type. The format is biochemical. The settings on record: other: phosphorolysis, calf PNP-wt, 40 mM phosphate buffer pH 7. The protocol:
Recombinant E. coli PNP, calf spleen PNP, and their mutated forms were expressed in E. coli and purified according to the procedures described earlier. Enzyme concentrations were calculated per monomer.
as §2

For `OC[C@H]1O[C@@H](n2ccc3c2ncn2ccnc32)[C@H](O)[C@@H]1O` [Compound 6, 1,N^6-etheno-tubercidine], in data set [1], the “inhibition of the calf PNP” value was “No inhibition”. The “protein fluorescence quenched at saturation of binding sites” value in data set [2] is listed as “more than 60%”. In data set [3], the pKa was found to be 5.2. Besides, the Ki in data set [4] is roughly 4.5 µM.

B1: calf PNP-wt (Bos taurus) (protein)
chain: T1 sequence (P55859 1-289)
notes: made in house; host or cells: E. coli
For the molecule B1, the Km in data set [5] came to 4.6 µM.
